Assay results as given in ChEMBL document CHEMBL5055650, “4-Acyl Pyrrole Capped HDAC Inhibitors: A New Scaffold for Hybrid Inhibitors of BET Proteins and Histone Deacetylases as Antileukemia Drug Leads” (J Med Chem, 2021).
Calls of active or inactive are those of the source. No cut-off for these calls is given here.

Tests used:
Histone deacetylase 1 = Histone deacetylase 1 (Homo sapiens, UniProt Q13547); assay: Inhibition of human recombinant HDAC1 assessed as fluorescence using fluorogenic substrate ZMAL incubated for 90 min by microplate reader
Histone deacetylase 1, sequence (Q13547 whole entry, the tested form may be a part): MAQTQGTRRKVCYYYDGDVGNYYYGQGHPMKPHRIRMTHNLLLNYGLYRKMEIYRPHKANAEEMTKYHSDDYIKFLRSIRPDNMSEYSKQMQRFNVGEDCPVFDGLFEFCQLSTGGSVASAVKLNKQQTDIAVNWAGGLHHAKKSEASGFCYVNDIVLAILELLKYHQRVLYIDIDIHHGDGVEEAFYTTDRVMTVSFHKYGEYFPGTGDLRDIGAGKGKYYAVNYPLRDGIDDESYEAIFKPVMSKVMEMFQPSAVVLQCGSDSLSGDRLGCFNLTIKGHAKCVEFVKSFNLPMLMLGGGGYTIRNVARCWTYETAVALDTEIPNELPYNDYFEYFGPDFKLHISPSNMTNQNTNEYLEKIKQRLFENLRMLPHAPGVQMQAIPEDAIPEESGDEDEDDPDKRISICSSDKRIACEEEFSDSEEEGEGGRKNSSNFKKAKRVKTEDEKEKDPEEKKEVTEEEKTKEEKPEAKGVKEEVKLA

[1] = molecular target: Bromodomain-containing protein 4 (Homo sapiens, UniProt O60885); assay: Binding affinity to human BRD4 domain 1 (unknown origin) assessed as dissociation constant by isothermal titration calorimetry assay
[2] = molecular target: T1, Protein deacetylase HDAC6 (Homo sapiens, UniProt Q9UBN7); assay: Inhibition of human recombinant HDAC6 assessed as fluorescence using fluorogenic substrate ZMAL incubated for 90 min by microplate reader
T1 sequence (Q9UBN7 whole entry): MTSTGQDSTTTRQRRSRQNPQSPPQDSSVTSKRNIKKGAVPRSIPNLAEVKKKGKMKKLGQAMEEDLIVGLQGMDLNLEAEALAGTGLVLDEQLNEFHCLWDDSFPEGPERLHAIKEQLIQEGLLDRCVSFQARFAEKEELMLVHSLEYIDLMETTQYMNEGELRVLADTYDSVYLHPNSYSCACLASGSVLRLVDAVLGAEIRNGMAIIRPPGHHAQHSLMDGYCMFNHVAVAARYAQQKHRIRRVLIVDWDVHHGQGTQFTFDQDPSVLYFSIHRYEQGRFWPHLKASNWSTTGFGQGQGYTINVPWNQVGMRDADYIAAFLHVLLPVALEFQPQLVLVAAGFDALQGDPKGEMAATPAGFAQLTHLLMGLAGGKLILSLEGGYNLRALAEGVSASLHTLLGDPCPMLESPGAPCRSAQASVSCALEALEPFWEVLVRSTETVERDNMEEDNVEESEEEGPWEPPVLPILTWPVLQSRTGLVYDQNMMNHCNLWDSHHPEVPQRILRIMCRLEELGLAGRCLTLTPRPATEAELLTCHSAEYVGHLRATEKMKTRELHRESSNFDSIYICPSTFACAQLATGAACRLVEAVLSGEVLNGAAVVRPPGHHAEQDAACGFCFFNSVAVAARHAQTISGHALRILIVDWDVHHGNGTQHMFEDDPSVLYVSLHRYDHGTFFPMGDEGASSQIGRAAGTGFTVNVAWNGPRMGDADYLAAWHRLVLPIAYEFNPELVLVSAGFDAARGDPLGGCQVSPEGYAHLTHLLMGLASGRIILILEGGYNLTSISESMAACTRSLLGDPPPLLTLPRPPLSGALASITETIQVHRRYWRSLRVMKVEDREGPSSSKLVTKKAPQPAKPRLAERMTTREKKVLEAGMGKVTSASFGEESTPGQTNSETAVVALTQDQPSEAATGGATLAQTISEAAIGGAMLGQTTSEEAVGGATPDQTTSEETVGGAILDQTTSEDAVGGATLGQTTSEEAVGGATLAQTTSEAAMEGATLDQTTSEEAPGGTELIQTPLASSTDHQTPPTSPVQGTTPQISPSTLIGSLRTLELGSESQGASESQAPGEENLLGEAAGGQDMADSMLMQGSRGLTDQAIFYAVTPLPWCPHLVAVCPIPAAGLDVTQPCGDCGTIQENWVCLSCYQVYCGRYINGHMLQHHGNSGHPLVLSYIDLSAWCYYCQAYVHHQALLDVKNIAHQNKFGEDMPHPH

HL-60 [3] = assay: Cytotoxicity against human HL-60 cells assessed as cell viability at 5 uM by CellTiter-Glo luminescent assay; format: functional; details: read-out: Activity
TALL-1 [4] = assay: Cytotoxicity against human TALL-1 cells assessed as cell viability at 5 uM by CellTiter-Glo luminescent assay; format: functional; details: read-out: Activity
MOLT-4 = assay: Cytotoxicity against human MOLT-4 cells assessed as cell viability at 5 uM by CellTiter-Glo luminescent assay; format: functional; details: read-out: Activity
K562 [5] = assay: Anticancer activity against human K562 cells assessed as cell growth inhibition by CellTiter-Glo luminescent assay; format: functional, cell-based
REH = assay: Anticancer activity against human REH cells assessed as cell growth inhibition by CellTiter-Glo luminescent assay; format: functional, cell-based
HAL-01 = assay: Anticancer activity against human HAL-01 cells assessed as cell growth inhibition by CellTiter-Glo luminescent assay; format: functional, cell-based
HPBALL [6] = assay: Anticancer activity against human HPBALL cells assessed as cell growth inhibition by CellTiter-Glo luminescent assay; format: functional, cell-based
HL-60 [7] = assay: Anticancer activity against human HL-60 cells assessed as cell growth inhibition by CellTiter-Glo luminescent assay; format: functional, cell-based
TALL-1 [8] = assay: Anticancer activity against human TALL-1 cells assessed as cell growth inhibition by CellTiter-Glo luminescent assay; format: functional, cell-based
[9] = molecular target: T2, Bromodomain-containing protein 2 (Homo sapiens, UniProt P25440); assay: Binding affinity to human BRD2 domain 1 assessed as dissociation constant by isothermal titration calorimetry assay
T2 sequence (P25440 whole entry, the tested form may be a part): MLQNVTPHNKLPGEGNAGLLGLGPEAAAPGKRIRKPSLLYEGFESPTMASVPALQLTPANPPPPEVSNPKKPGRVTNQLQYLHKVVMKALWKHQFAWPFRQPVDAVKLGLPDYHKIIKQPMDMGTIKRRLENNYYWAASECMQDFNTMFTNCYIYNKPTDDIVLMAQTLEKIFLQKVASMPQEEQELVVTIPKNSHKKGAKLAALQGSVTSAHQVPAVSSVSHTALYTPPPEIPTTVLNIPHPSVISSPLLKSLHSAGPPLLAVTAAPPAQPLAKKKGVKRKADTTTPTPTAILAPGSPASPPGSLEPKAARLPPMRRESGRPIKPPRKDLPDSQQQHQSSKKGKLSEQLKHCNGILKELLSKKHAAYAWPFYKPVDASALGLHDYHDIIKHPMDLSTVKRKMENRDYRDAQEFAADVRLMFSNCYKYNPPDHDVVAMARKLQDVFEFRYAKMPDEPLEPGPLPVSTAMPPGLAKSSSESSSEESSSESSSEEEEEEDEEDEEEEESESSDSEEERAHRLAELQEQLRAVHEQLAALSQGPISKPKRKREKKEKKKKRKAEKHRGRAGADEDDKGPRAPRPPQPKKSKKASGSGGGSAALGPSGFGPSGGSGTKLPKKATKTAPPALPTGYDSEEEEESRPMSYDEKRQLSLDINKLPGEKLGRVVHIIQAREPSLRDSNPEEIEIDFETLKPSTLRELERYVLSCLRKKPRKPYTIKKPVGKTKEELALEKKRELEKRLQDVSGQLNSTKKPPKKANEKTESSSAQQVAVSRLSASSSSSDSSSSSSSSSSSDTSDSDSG

[10] = molecular target: T2, Bromodomain-containing protein 2; assay: Binding affinity to human BRD2 domain 2 assessed as dissociation constant by isothermal titration calorimetry assay
[11] = molecular target: T3, Bromodomain-containing protein 3 (Homo sapiens, UniProt Q15059); assay: Binding affinity to human BRD3 domain 1 assessed as dissociation constant by isothermal titration calorimetry assay
T3 sequence (Q15059 whole entry, the tested form may be a part): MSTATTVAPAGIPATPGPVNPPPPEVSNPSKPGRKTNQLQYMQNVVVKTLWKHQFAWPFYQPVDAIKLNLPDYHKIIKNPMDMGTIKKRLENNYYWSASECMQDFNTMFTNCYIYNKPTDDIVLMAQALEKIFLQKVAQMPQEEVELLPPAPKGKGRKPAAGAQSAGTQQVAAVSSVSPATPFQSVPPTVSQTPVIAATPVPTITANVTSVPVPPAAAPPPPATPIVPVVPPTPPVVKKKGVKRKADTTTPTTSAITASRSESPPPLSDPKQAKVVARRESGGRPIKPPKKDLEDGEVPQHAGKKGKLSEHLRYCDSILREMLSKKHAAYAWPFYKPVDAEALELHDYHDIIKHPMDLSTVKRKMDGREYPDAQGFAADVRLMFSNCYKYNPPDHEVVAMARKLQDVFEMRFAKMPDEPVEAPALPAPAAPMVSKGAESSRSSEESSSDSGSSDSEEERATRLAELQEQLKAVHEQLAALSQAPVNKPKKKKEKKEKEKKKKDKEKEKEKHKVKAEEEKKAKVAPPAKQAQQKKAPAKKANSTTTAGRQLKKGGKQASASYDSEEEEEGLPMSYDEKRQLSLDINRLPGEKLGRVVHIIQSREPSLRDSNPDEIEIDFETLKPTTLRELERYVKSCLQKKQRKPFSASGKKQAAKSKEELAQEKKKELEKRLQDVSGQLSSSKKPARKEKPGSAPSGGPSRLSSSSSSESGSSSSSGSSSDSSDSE

[12] = molecular target: T3, Bromodomain-containing protein 3; assay: Binding affinity to human BRD3 domain 2 assessed as dissociation constant by isothermal titration calorimetry assay
HPBALL [13] = assay: Anticancer activity against human HPBALL cells assessed as reduction in size of colony at 5 uM measured after 24 hrs by colony formation assay; format: functional, cell-based
HPBALL [14] = assay: Anticancer activity against human HPBALL cells assessed as reduction in total number of colony forming units at 5 uM measured after 24 hrs by colony formation assay; format: functional, cell-based
[15] = molecular target: T4, Histone deacetylase (Homo sapiens) (UniProt Q13547+O15379+Q9UBN7+Q92769+Q9UQL6+Q8WUI4+Q9BY41+Q96DB2+P56524+Q9UKV0+Q969S8); assay: Inhibition of HDAC in human K562 cells assessed as increase in acetylated alpha-tubulin measured after 48 hrs by Western blot analysis; format: cell-based
Histone deacetylase 3 = Histone deacetylase 3 (Homo sapiens, UniProt O15379); assay: Inhibition of human HDAC3 assessed as target activity using fluorogenic substrate ZMAL for 90 min by microplate reader at 355nm
Histone deacetylase 3, sequence (O15379 whole entry): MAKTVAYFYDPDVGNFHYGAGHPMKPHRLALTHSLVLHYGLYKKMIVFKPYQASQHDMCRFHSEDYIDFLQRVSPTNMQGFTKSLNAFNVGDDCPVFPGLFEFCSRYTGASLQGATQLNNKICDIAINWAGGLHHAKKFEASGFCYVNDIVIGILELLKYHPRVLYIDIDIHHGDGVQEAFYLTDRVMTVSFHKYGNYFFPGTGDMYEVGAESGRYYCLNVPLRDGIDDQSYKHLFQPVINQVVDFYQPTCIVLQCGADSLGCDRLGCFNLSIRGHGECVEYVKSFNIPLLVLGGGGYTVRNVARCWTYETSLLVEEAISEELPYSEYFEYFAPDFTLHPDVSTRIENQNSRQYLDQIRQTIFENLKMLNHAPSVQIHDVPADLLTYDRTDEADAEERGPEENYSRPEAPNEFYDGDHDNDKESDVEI

[16] = molecular target: T5, Bromodomain-containing protein 7 (Homo sapiens, UniProt Q9NPI1); assay: Binding affinity to human BRD7 assessed as dissociation constant by isothermal titration calorimetry assay
T5 sequence (Q9NPI1 whole entry): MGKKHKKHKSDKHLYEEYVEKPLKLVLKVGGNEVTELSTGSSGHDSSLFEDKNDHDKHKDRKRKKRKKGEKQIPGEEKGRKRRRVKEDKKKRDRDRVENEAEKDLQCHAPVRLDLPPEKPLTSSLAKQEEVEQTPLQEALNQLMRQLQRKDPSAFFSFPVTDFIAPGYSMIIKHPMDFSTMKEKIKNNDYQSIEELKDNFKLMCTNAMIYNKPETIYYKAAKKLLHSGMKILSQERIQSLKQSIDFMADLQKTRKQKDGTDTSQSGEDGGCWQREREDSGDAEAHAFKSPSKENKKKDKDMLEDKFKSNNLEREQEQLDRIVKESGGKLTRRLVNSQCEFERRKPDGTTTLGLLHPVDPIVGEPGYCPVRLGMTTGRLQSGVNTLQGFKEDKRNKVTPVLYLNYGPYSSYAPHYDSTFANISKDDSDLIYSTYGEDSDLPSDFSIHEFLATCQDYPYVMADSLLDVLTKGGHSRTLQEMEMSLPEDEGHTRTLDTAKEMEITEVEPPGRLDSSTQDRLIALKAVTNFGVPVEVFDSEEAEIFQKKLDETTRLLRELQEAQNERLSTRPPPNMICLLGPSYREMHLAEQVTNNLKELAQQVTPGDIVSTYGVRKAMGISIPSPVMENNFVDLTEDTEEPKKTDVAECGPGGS

[17] = molecular target: T4, Histone deacetylase (Homo sapiens); assay: Inhibition of HDAC in human K562 cells assessed as increase in acetylated histone H3 measured after 48 hrs by Western blot analysis; format: cell-based
Histone deacetylase 2 = Histone deacetylase 2 (Homo sapiens, UniProt Q92769); assay: Inhibition of human HDAC2 assessed as target activity using fluorogenic substrate ZMAL for 90 min by microplate reader at 355nm
Histone deacetylase 2, sequence (Q92769 whole entry): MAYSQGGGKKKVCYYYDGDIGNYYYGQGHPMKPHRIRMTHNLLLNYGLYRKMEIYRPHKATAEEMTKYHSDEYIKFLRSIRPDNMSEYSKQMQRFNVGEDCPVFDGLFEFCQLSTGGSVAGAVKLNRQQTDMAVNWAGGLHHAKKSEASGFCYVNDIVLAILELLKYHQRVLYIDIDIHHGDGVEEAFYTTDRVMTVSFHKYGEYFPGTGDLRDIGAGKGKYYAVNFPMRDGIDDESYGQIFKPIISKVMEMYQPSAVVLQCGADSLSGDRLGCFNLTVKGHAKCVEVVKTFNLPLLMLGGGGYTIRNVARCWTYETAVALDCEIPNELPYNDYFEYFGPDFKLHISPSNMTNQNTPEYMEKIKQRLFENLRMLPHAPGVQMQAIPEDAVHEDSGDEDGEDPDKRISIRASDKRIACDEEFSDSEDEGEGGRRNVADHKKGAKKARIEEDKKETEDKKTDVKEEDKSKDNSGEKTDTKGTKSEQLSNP

[18] = molecular target: T4, Histone deacetylase (Homo sapiens); assay: Inhibition of HDAC in human K562 cells assessed as decrease in MYC expression measured after 24 to 72 hrs by Western blot analysis; format: cell-based; details: time 24-72 hrs
K562 [19] = assay: Induction of apoptosis in human K562 cells assessed as increase cleaved PARP expression measured after 24 to 72 hrs by Western blot analysis; format: functional, cell-based; details: time 24-72 hrs
K562 [20] = assay: Induction of apoptosis in human K562 cells assessed as apoptosis at 6 uM after 24 to 72 hrs using annexin V/PI followed by flow cytometry; format: functional, cell-based; details: time 24-72 hrs

Compound | IC50 (Histone deacetylase 1) [nM] | Kd ([1]; read-out: Kd) [nM] | IC50 [2] [nM] | viability at 5 µM (HL-60 [3]) [%] | viability at 5 µM (TALL-1 [4]) [%] | viability at 5 µM (MOLT-4) [%] | also measured
CCc1c(C(=O)Nc2cccc(CCC(=O)Nc3ccccc3N)c2)[nH]c(C)c1C(C)=O | 28200 | 6920 | > 100000 | – | – | – | –
CCc1c(C(=O)Nc2cccc(CCC(=O)OC)c2)[nH]c(C)c1C(C)=O | > 33300 | 8260 | > 33300 | – | – | – | –
COC(=O)CCCCCCCOc1ccc(S(=O)(=O)N2CCOCC2)cc1NC(=O)c1c2c(c(C)n1C)C(=O)CCCC2 | > 10000 | 34 | > 10000 | 104 | 70.3 | 68.6 | –
Cc1sc2c(c1C)C(c1ccc(Cl)cc1)=N[C@@H](CC(=O)Nc1ccc(O)cc1)c1nnc(C)n1-2 [BIRABRESIB] | – | – | – | – | – | – | IC50 (K562 [5]): 2840 nM; IC50 (REH): 15300 nM; IC50 (HAL-01): 2530 nM; IC50 (HPBALL [6]): 7010 nM; IC50 (HL-60 [7]): 820 nM; IC50 (TALL-1 [8]): 1350 nM
CCc1c(C(=O)Nc2cc(/C=C/C(=O)NO)ccc2O)[nH]c(C)c1C(C)=O | 142 | 2660 | 80 | 88.2 | 87.6 | 105 | –
CCc1c(C(=O)Nc2cc(S(=O)(=O)Nc3cccc(/C=C/C(=O)NO)c3)ccc2OC)[nH]c(C)c1C(C)=O | 97 | 3670 | 73 | 98.7 | 85.6 | 106 | –
CCc1c(C(=O)Nc2cc(S(=O)(=O)N(CC)CC)ccc2O)[nH]c(C)c1C(C)=O | – | – | – | – | – | – | Kd [9]: 170 nM; Kd [10]: 830 nM; Kd [11]: 380 nM; Kd [12]: 490 nM
Cc1c2c(c(C(=O)Nc3cc(S(=O)(=O)N4CCOCC4)ccc3OCCCCCCCC(=O)NO)n1C)CCCCC2=O | 330 | – | 320 | 80.8 | 82.3 | 115 | Activity (HPBALL [13]): Active; Activity (HPBALL [14]): Active
CCc1c(C(=O)Nc2cccc(CCC(=O)NO)c2)[nH]c(C)c1C(C)=O | 900 | 11500 | 658 | – | – | – | –
Cn1cccc1C(=O)Nc1cccc(CCC(=O)NO)c1 | 1280 | – | 620 | – | – | – | Kd [1]: Not Active
CCc1c(C(=O)Nc2cccc(/C=C/C(=O)NO)c2)[nH]c(C)c1C(C)=O | 125 | 4500 | 45 | – | – | – | inhibition [15]: Active; IC50 (K562 [5]): 7380 nM; IC50 (Histone deacetylase 3): 149 nM; IC50 (REH): > 25000 nM; Kd [9]: 7700 nM; Kd [10]: > 10000 nM; IC50 (HAL-01): > 25000 nM; Kd [11]: > 10000 nM; IC50 (HPBALL [6]): > 25000 nM; Kd [12]: > 10000 nM; Kd [16]: > 10000 nM; IC50 (HL-60 [7]): > 25000 nM; Activity [17]: Active; IC50 (Histone deacetylase 2): 168 nM; Activity [18]: Active; IC50 (TALL-1 [8]): 5160 nM
O=C(CCCCCCNC(=O)c1cnc(N(c2ccccc2)c2ccccc2)nc1)NO [RICOLINOSTAT] | – | – | – | – | – | – | IC50 (K562 [5]): 6020 nM; Activity (K562 [19]): Active; IC50 (REH): > 25000 nM; IC50 (HAL-01): > 25000 nM; IC50 (HPBALL [6]): 6700 nM; IC50 (HL-60 [7]): 10400 nM; Activity (K562 [20]): Active; IC50 (TALL-1 [8]): 3880 nM
